The assay deals with T1, MC1-R (Homo sapiens, UniProt Q01726).
T1 construct: or, for MC1-R, in HBL cells; endogenous in cells; host or cells: HBL cells
Briefly: Assay for agonist activity: intracellular cAMP accumulation (functional assay). The class given is cell-based. The settings on record: functional assays at MC1-R. The method, then: Accumulation of intracellular cAMP is examined as a measure of the ability of the test compounds to elicit a functional response in HEK-293 cells that express MC4-R, or, for MC1-R, in HBL cells. Confluent HEK-293 cells that express recombinant hMC4-R, or HBL cells that express MC1-R, are detached from culture plates by incubation in enzyme-free cell dissociation buffer. Dispersed cells are suspended in Earle's Balanced Salt Solution containing 10 mM HEPES (pH 7.5), 1 mM MgCl2, 1 mM glutamine, 0.5% albumin and 0.3 mM 3-isobutyl-1-methyl-xanthine (IBMX), a phosphodiesterase inhibitor. The cells are plated in 96-well plates at a density of 0.5 x 10^5 cells per well and pre-incubated for 30 minutes. Cells are exposed for 1 hour at 37° C. to test compounds dissolved in DMSO (final DMSO concentration of 1%) at a concentration range of 0.05-5000 nM in a total assay volume of 200 μL. NDP-α-MSH is used as the reference agonist. At the end of the incubation period, cells are disrupted by the addition of 50 μL of lysis buffer (cAMP EIA kit, Amersham) followed by vigorous pipetting. Levels of cAMP in the lysates are determined using a cAMP EIA kit (Amersham). Data analysis is performed by nonlinear regression analysis with Graph-Pad Prism® software. The maximum efficacies of the test compounds are compared to that achieved by the reference melanocortin agonist NDP-α-MSH.
A general note: Changes in cAMP serve as a functional read-out for many G protein-coupled receptors.

In general, EC50 refers to the concentration needed to bring the measured effect to its halfway point. Broadly, the Emax is the greatest response seen or fitted, relative to the assay's reference.

T1 sequence (Q01726 whole entry): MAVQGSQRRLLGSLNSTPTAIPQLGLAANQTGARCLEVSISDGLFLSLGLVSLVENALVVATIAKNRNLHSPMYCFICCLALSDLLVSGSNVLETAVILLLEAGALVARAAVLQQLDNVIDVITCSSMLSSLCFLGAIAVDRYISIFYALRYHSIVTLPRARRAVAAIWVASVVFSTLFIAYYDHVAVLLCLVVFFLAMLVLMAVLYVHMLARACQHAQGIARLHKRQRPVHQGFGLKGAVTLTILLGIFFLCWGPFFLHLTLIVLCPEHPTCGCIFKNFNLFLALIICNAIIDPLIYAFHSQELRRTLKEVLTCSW

Turning to `CCCCN1CN(c2ccccc2)C2(CCN(C(=O)[C@@H](Cc3ccc(OC)cc3)NC(=O)[C@@H](N)Cc3cncn3C)CC2)C1=O` [Example 142, (S)-2-Amino-N-[(R)-2-(3-butyl-4-oxo-1-phenyl-1,3,8-triaza-spiro[4.5]dec-8-yl)-1-(4-methoxy-benzyl)-2-oxo-ethyl]-3-(3-methyl-3H-imidazol-4-yl)-propionamide], the “functional status at MC1-R” value is “partial agonist”. Where the note is “HBL cells that express MC1-R, cAMP”, this compound returned an EC50 of 20 nM. The compound also came in with an Emax (maximum efficacy compared to reference agonist NDP-α-MSH) of 43%.

(Values after US8263608B2, “Melanocortin receptor-specific spiro-piperidine compounds” (Palatin Technologies, Inc., priority 2008, dated 2012).)
